pIC50: −log10 of the molar value. Calls of active or inactive are those of the source. The rule behind the calls is not given here.
How the values were obtained:
[1] = Antiproliferative activity against human MGC803 cells by MTT assay; assay type: functional, cell-based; settings: MGC-803
[2] = tested on: HepG2; test: Antiproliferative activity against human HepG2 cells by MTT assay; assay type: functional, cell-based
[3] = tested on: A549; test: Antiproliferative activity against human A549 cells by MTT assay; assay type: functional, cell-based
[4] = tested on: A549; test: Induction of apoptosis in human A549 cells assessed as necrotic cells at 10 uM after 6 hrs by Annexin-V-FITC/Propidium iodide staining based flow cytometric analysis (reference value: 0.28 +/- 0.09%); assay type: functional
[5] = tested on: A549; test: Induction of apoptosis in human A549 cells assessed as viable cells at 10 uM after 48 hrs by Annexin-V-FITC/Propidium iodide staining based flow cytometric analysis (reference value: 92.46 +/- 4.23%); assay type: functional; settings: A549, 48 h, read-out: Activity
[6] = tested on: A549; test: Cell cycle arrest in human A549 cells assessed as accumulation at G0/G1 phase at 10 uM by propidium iodide staining based flow cytometric analysis (reference value: 63.82 +/- 2.66%); assay type: functional
[7] = tested on: A549; test: Induction of apoptosis in human A549 cells assessed as necrotic cells at 10 uM after 48 hrs by Annexin-V/Propidium iodide dual staining based flow cytometric analysis (reference value: 2.57 +/- 0.39%); assay type: functional
[8] = tested on: A549; test: Cell cycle arrest in human A549 cells assessed as accumulation at S phase at 10 uM by propidium iodide staining based flow cytometric analysis (reference value: 23.41 +/- 2.19%); assay type: functional
[9] = tested on: A549; test: Induction of apoptosis in human A549 cells assessed as viable cells at 10 uM after 6 hrs by Annexin-V-FITC/Propidium iodide staining based flow cytometric analysis (reference value: 95.48 +/- 2.03%); assay type: functional; settings: A549, 6 h, read-out: Activity
[10] = tested on: A549; test: Cell cycle arrest in human A549 cells assessed as accumulation at G2/M phase at 10 uM by propidium iodide staining based flow cytometric analysis (reference value: 12.77 +/- 1.55%); assay type: functional
[11] = tested on: A549; test: Induction of apoptosis in human A549 cells assessed as late apoptotic cells at 10 uM after 48 hrs by Annexin-V/Propidium iodide dual staining based flow cytometric analysis (reference value: 1.44 +/- 0.43%); assay type: functional
[12] = tested on: A549; test: Induction of apoptosis in human A549 cells assessed as upregulation of caspase-8 expression at 10 uM after 48 hrs by Western blot analysis; assay type: functional, cell-based
[13] = tested on: A549; test: Induction of apoptosis in human A549 cells assessed as late apoptotic cells at 10 uM after 6 hrs by Annexin-V-FITC/Propidium iodide staining based flow cytometric analysis (reference value: 0.41 +/- 0.19%); assay type: functional
[14] = tested on: A549; test: Induction of apoptosis in human A549 cells assessed as early apoptotic cells at 10 uM after 6 hrs by Annexin-V-FITC/Propidium iodide staining based flow cytometric analysis (reference value: 3.83 +/- 0.49%); assay type: functional
[15] = tested on: A549; test: Induction of apoptosis in human A549 cells assessed as upregulation of caspase-3 expression at 10 uM after 48 hrs by Western blot analysis; assay type: functional, cell-based
[16] = tested on: A549; test: Induction of apoptosis in human A549 cells assessed as early apoptotic cells at 10 uM after 48 hrs by Annexin-V/Propidium iodide dual staining based flow cytometric analysis (reference value: 3.53 +/- 0.89%); assay type: functional
[17] = tested on: A549; test: Induction of apoptosis in human A549 cells assessed as increase in ROS production at 10 uM after 12 hrs by DCF staining based luminescence spectrometric analysis; assay type: functional, cell-based
[18] = target: RAF proto-oncogene serine/threonine-protein kinase (Homo sapiens) (UniProt P04049); settings: A549, 10 uM
Description: Inhibition of C-Raf in human A549 cells at 10 uM after 48 hrs by Western blot analysis

[19] = tested on: A549; test: Induction of apoptosis in human A549 cells assessed as upregulation of Bax expression at 10 uM after 48 hrs by Western blot analysis; assay type: functional, cell-based
[20] = tested on: A549; test: Induction of apoptosis in human A549 cells assessed as downregulation of Bcl-2 expression at 10 uM after 48 hrs by Western blot analysis; assay type: functional, cell-based

RAF proto-oncogene serine/threonine-protein kinase (Homo sapiens), sequence (P04049 whole entry): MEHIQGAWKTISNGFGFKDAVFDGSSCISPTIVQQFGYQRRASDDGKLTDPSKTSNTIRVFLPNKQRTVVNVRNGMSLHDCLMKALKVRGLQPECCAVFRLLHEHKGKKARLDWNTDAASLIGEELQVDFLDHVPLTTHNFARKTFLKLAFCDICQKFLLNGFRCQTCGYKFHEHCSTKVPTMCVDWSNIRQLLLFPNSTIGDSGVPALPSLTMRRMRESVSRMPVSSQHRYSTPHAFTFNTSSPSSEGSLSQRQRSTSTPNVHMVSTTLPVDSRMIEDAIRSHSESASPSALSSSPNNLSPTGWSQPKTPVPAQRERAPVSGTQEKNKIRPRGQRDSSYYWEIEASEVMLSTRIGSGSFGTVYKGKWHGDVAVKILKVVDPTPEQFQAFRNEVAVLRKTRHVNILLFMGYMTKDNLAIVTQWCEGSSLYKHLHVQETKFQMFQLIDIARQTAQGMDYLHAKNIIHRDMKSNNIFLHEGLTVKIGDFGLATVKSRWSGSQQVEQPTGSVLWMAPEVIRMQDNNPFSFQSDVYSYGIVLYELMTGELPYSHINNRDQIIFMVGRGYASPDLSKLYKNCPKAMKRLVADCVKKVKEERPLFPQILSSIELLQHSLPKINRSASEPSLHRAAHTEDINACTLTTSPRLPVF

Compound | pIC50 [1] | pIC50 [2] | pIC50 [3] | further results
O=C(Nc1ccc(F)cc1)Nc1cccc(CNc2ncnc3ccccc23)c1 | 4.35 | 4.38 | 4.68 | –
COc1cc2ncnc(NCc3cccc(NC(=O)Nc4ccccc4Cl)c3)c2cc1OC | 4.52 | 4.59 | 4.82 | –
COc1cc2ncnc(NCc3cccc(NC(=O)Nc4ccccc4F)c3)c2cc1OC | 4.99 | 4.60 | 4.62 | –
COc1cc2ncnc(Nc3ccc(F)c(Cl)c3)c2cc1OCCCN1CCOCC1 [GEFITINIB] | – | – | – | Activity [4]: 0.94%; viability at 10 µM [5]: 83.1%; Activity [6]: 92.35%; Activity [7]: 11%; Activity [8]: 3.61%; viability at 10 µM [9]: 88%; Activity [10]: 4.04%; Activity [11]: 4.92%; Activity [12]: Active; Activity [13]: 5.27%; Activity [14]: 5.81%; Activity [15]: Active; Activity [16]: 1%; Activity [17]: Active
COc1cc2ncnc(NCc3cccc(NC(=O)Nc4cccc(C(F)(F)F)c4)c3)c2cc1OC | < 4.30 | 4.47 | 4.45 | –
COC(=O)c1ccccc1NC(=O)Nc1cccc(CNc2ncnc3ccccc23)c1 | 5.02 | < 4.30 | 4.53 | –
COc1cc2ncnc(NCc3cccc(NC(=O)Nc4ccc(F)cc4)c3)c2cc1OC | 4.38 | 4.44 | 4.77 | –
O=C(Nc1ccc([N+](=O)[O-])cc1)Nc1cccc(CNc2ncnc3ccccc23)c1 | 5.03 | 4.61 | < 4.30 | –
COc1ccc(NC(=O)Nc2cccc(CNc3ncnc4cc(OC)c(OC)cc34)c2)cc1 | 4.91 | < 4.30 | 4.61 | –
COC(=O)c1ccccc1NC(=O)Nc1cccc(CNc2ncnc3cc(OC)c(OC)cc23)c1 | 5.05 | 4.50 | 4.53 | –
COc1ccc(NC(=O)Nc2cccc(CNc3ncnc4ccccc34)c2)cc1 | 4.56 | < 4.30 | 4.53 | –
COc1cc2ncnc(NCc3cccc(NC(=O)Nc4ccc(Cl)cc4)c3)c2cc1OC | 4.35 | < 4.30 | 4.52 | –
O=C(Nc1cccc(Cl)c1)Nc1cccc(CNc2ncnc3ccccc23)c1 | 4.72 | < 4.30 | < 4.30 | –
O=C(Nc1ccccc1)Nc1cccc(CNc2ncnc3ccccc23)c1 | 4.88 | < 4.30 | 4.74 | –
COc1ccccc1NC(=O)Nc1cccc(CNc2ncnc3ccccc23)c1 | 4.41 | 4.76 | 4.51 | –
COc1ccccc1NC(=O)Nc1cccc(CNc2ncnc3cc(OC)c(OC)cc23)c1 | 5.11 | 4.57 | 4.82 | –

Compound | pIC50 [1] | pIC50 [2] | pIC50 [3] | further results
CC(C)(C)c1ccc(NC(=O)Nc2cccc(CNc3ncnc4ccccc34)c2)cc1 | 5.13 | 4.77 | 4.75 | –
Cc1ccccc1NC(=O)Nc1cccc(CNc2ncnc3ccccc23)c1 | < 4.30 | < 4.30 | 4.40 | –
COc1cc2ncnc(NCc3cccc(NC(=O)Nc4ccc(C)cc4)c3)c2cc1OC | 4.47 | < 4.30 | 4.89 | –
O=C(Nc1cccc(CNc2ncnc3ccccc23)c1)Nc1ccccc1Cl | < 4.30 | < 4.30 | 4.75 | –
COc1cc2ncnc(NCc3cccc(NC(=O)Nc4cccc(C)c4)c3)c2cc1OC | 4.35 | 4.67 | 4.57 | –
O=C(Nc1cccc(CNc2ncnc3ccccc23)c1)Nc1cccc(C(F)(F)F)c1 | < 4.30 | 4.40 | 4.35 | –
O=C(Nc1cccc(CNc2ncnc3ccccc23)c1)Nc1ccccc1F | 4.48 | 4.76 | 4.58 | –
COc1cc2ncnc(NCc3cccc(NC(=O)Nc4ccc([N+](=O)[O-])cc4)c3)c2cc1OC | 5.09 | 4.72 | < 4.30 | –
O=C(Nc1ccc(Cl)cc1)Nc1cccc(CNc2ncnc3ccccc23)c1 | 4.58 | < 4.30 | < 4.30 | –
CNC(=O)c1cc(Oc2ccc(NC(=O)Nc3ccc(Cl)c(C(F)(F)F)c3)cc2)ccn1 [SORAFENIB] | 5.10 | 5.04 | 4.87 | inhibition [18]: Active; Activity [4]: 0.7%; viability at 10 µM [5]: 72.8%; Activity [19]: Active; Activity [6]: 90.27%; Activity [7]: 19.9%; Activity [8]: 5.79%; viability at 10 µM [9]: 83.7%; Activity [10]: 3.93%; Activity [20]: Active; Activity [11]: 6.38%; Activity [12]: Active; Activity [13]: 6.23%; Activity [14]: 9.33%; Activity [15]: Active; Activity [16]: 0.9%; Activity [17]: Active
COc1cc2ncnc(NCc3cccc(NC(=O)Nc4ccccc4)c3)c2cc1OC | 5.00 | 4.71 | 4.77 | –
COc1cc2ncnc(NCc3cccc(NC(=O)Nc4ccccc4C)c3)c2cc1OC | < 4.30 | < 4.30 | 4.67 | –
Cc1ccc(NC(=O)Nc2cccc(CNc3ncnc4ccccc34)c2)cc1 | 4.51 | < 4.30 | 4.60 | –
COc1cc2ncnc(NCc3cccc(NC(=O)Nc4cccc(Cl)c4)c3)c2cc1OC | < 4.30 | 4.45 | 4.64 | –
Cc1cccc(NC(=O)Nc2cccc(CNc3ncnc4ccccc34)c2)c1 | 4.52 | < 4.30 | 4.52 | –

— ChEMBL document CHEMBL3739323, “Design, synthesis, and biological evaluation of novel quinazolinyl-diaryl urea derivatives as potential anticancer agents” (Eur J Med Chem, 2016)
